Assay results from US7538116B2, “Treatment of sexual disorders” (priority 2003, dated 2009).

Tests used:
Format in all cases: in vivo, human
subjects with depression = test: DISF interview, short-term investigation in depression (134004); details: trial 134004; for mean change from baseline in total score (DISF interview): short-term treatment
Method: (§1) Sexual dysfunction and recovery were measured with the Derogatis Interview for Sexual Functioning (DISF/DISF-SR). This provides for a coordinated set of brief matched instruments designed to provide an estimate of the quality of an individual's current sexual functioning. The DISF is a semi-structured interview comprising 25 items and reflecting quality of sexual functioning in a multi-domain format. The DISF-SR is a matching Self-Report (SR) inventory designed to accomplish the same goal in a patient self-report mode. There are gender specific male and female versions of both the DISF and the DISF-SR. All instruments in the DISF series are designed to be interpreted at three distinct levels: Discrete Items, Functional Domains, and aggregate summary (Total Score). The Discrete Items are arranged into five primary Functional Domains of sexual functioning: (I) sexual cognition/fantasy, (II) sexual arousal, (III) sexual behavior/experience, (IV) orgasm, and (V) sexual drive/relationship. Both the DISF and the DISF-SR take approximately 12 to 15 minutes to administer. Internal consistency reliabilities for domain scores of the DISF-SR range from 0.70 to 0.77, while test-retest stability coefficients are 0.80 to 0.90 and 0.86 for the Total Score. Inter-rater reliability estimates for the DISF interview ranged from 0.84 to 0.92 for domain scores, and 0.91 for the Total. […] The DISF/DISF-SR is currently available in 10 foreign languages.
(§2) The Derogatis Interview was used, providing information on the quality of the subject's sexual functioning in quantitative terms. Only subjects who were willing to discuss their sexual functioning with the investigator were to be included. In addition, the scores from the interview, as well as demographic and medical history information, were to be used by the investigator to determine whether or not the subject reached the threshold of disorder (absent or present) for the primary criteria for the DSM-IV Sexual Disorders.
DISF interview data from the analysis of another investigation of gepirone in depression (Organon internal reference number: 134004) were analyzed. […] Upon analysis of change from baseline in total score only for each domain for females and Domains I to III for males, similar conclusions for subjects who received gepirone and fluoxetine could be drawn.

[1] = test system: subjects from trial 134004; test: DISF interview, long-term trial 134502 (continued or switched therapy)
Method: as §1, §2
In another study (Organon's Internal reference number 134501), all subjects received gepirone ER (40 mg) after having completed a trial wherein subjects were randomized to receive either gepirone ER or placebo. DISF-SR data from the analysis of this long-term trial were analyzed. For females, data were available for 23 subjects who received gepirone in a previous trial (Organon internal reference: 134001 or 134002) previously (henceforth referred to as gepirone in this paragraph) and 23 subjects who received placebo previously (henceforth referred to as placebo in this paragraph). […] For males, data were available for 17 subjects who received gepirone and 17 subjects who received placebo. […] DISF Interview data from the analysis of another long-term trial (Organon internal reference: 134502) were analyzed. In this trial subjects from a previous trial (Organon internal reference:134004) were continued on therapy or were switched to a new drug, depending on antidepressant response.

depressed patients = test: Specific case descriptions, long-term open-label study
Excerpt: In another trial patients were enrolled in a long-term open-label study of depressed patients. […] It was observed that most of the reports were from patients in long-term therapy who had recovered from their depression weeks to months before making the reports. These reports provided incidental observations on both men and women of various ages that sexual desire had increased to a level not previously experienced by the subject and which was quite pleasing to them. It appeared that these patients were no longer depressed and now had the added benefit that sexual function, sexual relationships, and quality of life were improved beyond that experienced by patients merely recovering from depression. […] They were pursuing a dating life for the first time in years. […] They were not depressed anymore and the sexual effects continued to increase. […] They were successful and carried out a satisfying sexual relationship for the fist time since the death of their spouse. They were reported to be “giddy” over the effects of gepirone in this domain. Their quality of life was judged as much improved by the investigator.

[2] = test system: subjects in remission from depression; test: DISF total score, longer-term trial 28709 (randomized after remission); details: for mean change from baseline in total score (DISF): gepirone HCl ER 40 mg, randomized after remission
Method: as §1
as §2, with “Disorders. […]” for “Disorders.”

[3] = test system: subjects from trials 134001 or 134002; test: DISF-SR, long-term trial 134501 (all subjects on gepirone ER); details: then gepirone ER 40 mg
Method: as §1, §2
In another study (Organon's Internal reference number 134501), all subjects received gepirone ER (40 mg) after having completed a trial wherein subjects were randomized to receive either gepirone ER or placebo. DISF-SR data from the analysis of this long-term trial were analyzed. For females, data were available for 23 subjects who received gepirone in a previous trial (Organon internal reference: 134001 or 134002) previously (henceforth referred to as gepirone in this paragraph) and 23 subjects who received placebo previously (henceforth referred to as placebo in this paragraph). […] DISF Interview data from the analysis of another long-term trial (Organon internal reference: 134502) were analyzed. […]

depressed outpatients = test: DISF-SR, combined analysis of two short-term investigations (134001 and 134002); details: short-term treatment (2 months), 134001 and 134002 combined
Method: Sexual dysfunction and recovery were measured with the Derogatis Interview for Sexual Functioning (DISF/DISF-SR). This provides for a coordinated set of brief matched instruments designed to provide an estimate of the quality of an individual's current sexual functioning. The DISF is a semi-structured interview comprising 25 items and reflecting quality of sexual functioning in a multi-domain format. The DISF-SR is a matching Self-Report (SR) inventory designed to accomplish the same goal in a patient self-report mode. There are gender specific male and female versions of both the DISF and the DISF-SR. All instruments in the DISF series are designed to be interpreted at three distinct levels: Discrete Items, Functional Domains, and aggregate summary (Total Score). The Discrete Items are arranged into five primary Functional Domains of sexual functioning: (I) sexual cognition/fantasy, (II) sexual arousal, (III) sexual behavior/experience, (IV) orgasm, and (V) sexual drive/relationship. Both the DISF and the DISF-SR take approximately 12 to 15 minutes to administer. […]
The Derogatis Interview was used, providing information on the quality of the subject's sexual functioning in quantitative terms. […]
DISF-SR data from the combined analysis of two investigations of gepirone in depressed outpatients (Organon internal reference: 134001 and 134002) were analyzed. […]

[4] = males, same treatment throughout short-term (134004) and long-term (134502) trials

CNCCC(Oc1ccc(C(F)(F)F)cc1)c1ccccc1 (centres unmarked) [fluoxetine]
mean change from baseline in total score (DISF interview) (subjects with depression; females): −3.5 | mean change from baseline in total score (DISF interview) (subjects with depression; males): −4.4 | mean change from baseline in total score (DISF interview) ([1]; females, switched from gepirone to fluoxetine, trial 134502): +0.9 | mean change from baseline in total score (DISF interview) [1, 4]: −1.2 | mean change from baseline in total score (DISF interview) ([1]; males, switched from gepirone to fluoxetine, trial 134502): −5.8

CC1(C)CC(=O)N(CCCCN2CCN(c3ncccn3)CC2)C(=O)C1 [gepirone, 4,4-dimethyl-1-[4-[4-(2-pyrimidinyl)-1-piperazinyl]butyl]-2,6-piperidinedione]
quality of life judged by the investigator (case report) (depressed patients; patient): much improved | orgasms (case report) (depressed patients; person on open-label therapy, no longer depressed): more frequent and more intense | libido (case report) (depressed patients; person, on gepirone for nearly a year): libido was up | mean change from baseline in total score (DISF interview) (subjects with depression; females): +4.3 | mean change from baseline in total score (DISF interview) (subjects with depression; males): 0 | change from baseline in total score for Domains IV (orgasm) and V (sexual drive/relationship) (subjects with depression; males): improvement in total score from baseline | mean change from baseline in total score (DISF) ([2]; females): +5.2 | Domains IV (orgasm) and V (sexual drive/relationship), total score from baseline ([2]; males): improvement in total score from baseline | mean change from baseline in total score (DISF) ([2]; males): +18.7 | mean change from baseline in total score (DISF interview) ([1]; females, same treatment throughout short-term (134004) and long-term (134502) trials): +18.1 | mean change from baseline in total score (DISF interview) ([1]; females, switched from fluoxetine to gepirone, trial 134502): +2.3 | mean change from baseline in total score (DISF interview) ([1]; females, switched from placebo to gepirone, trial 134502): +4.2 | mean change from baseline in total score (DISF interview) [1, 4]: +5.5 | mean change from baseline in total score (DISF interview) ([1]; males, switched from fluoxetine to gepirone, trial 134502): +3.3 | mean change from baseline in total score (DISF interview) ([1]; males, switched from placebo to gepirone, trial 134502): +7.1 | mean change from baseline in total score (DISF-SR) ([3]; females, gepirone in previous trial): +11.2 | mean change from baseline in total score (DISF-SR) ([3]; females, placebo in previous trial): +3.3 | mean change from baseline in total score (DISF-SR) ([3]; males, gepirone in previous trial): +12.3 | mean change from baseline in total score (DISF-SR) ([3]; males, placebo in previous trial): −4.4 | mean change from baseline in total score (DISF-SR) (depressed outpatients; females): +8.0 | mean change from baseline in total score (DISF-SR) (depressed outpatients; males): +13.7
